# Article PMC8359396, “Pharmacological validation of TDO as a target for Parkinson’s disease” (The Febs Journal, 2021)
# How the values were obtained:
# [1] = target: hTDO2‐overexpressing HEK‐293 cells (HEK‐hTDO) (Homo sapiens, UniProt P48775); assay: Cell-based TDO assay, HEK‐hTDO cells (NFK Green)
# [2] = target: human IDO1‐overexpressing HEK‐293 cells (HEK‐hIDO1) (Homo sapiens, UniProt P14902); assay: Cell-based IDO1 assay, HEK‐hIDO1 cells (NFK Green)
# Description: Inhibition of Trp‐to‐NFK conversion in HEK‐hTDO, HEK‐hIDO1, and SW48 cells was measured with NFK Green, essentially as described previously for cancer cell lines. Cell density, incubation time, and Trp concentrations were optimized. For the TDO assay with HEK‐hTDO and SW48 cells, 200 µM Trp was added to the culture medium. No additional Trp was added for the IDO1 assay with HEK‐hIDO1 cells. The incubation time with compound was 42 h for the assays with HEK‐hTDO and HEK‐hIDO1 cells, and 18 h for the assay with SW48 cells.
# GL‐261‐mTDO = target: T1, GL‐261‐mTDO (Mus musculus, UniProt P48776); assay: Cell-based TDO assay, GL‐261‐mTDO cells (pDMAB)
# T1 construct: stably overexpressing the full‐length mouse TDO2 cDNA (GL‐261‐mTDO); expressed in transfected cells; host or cells: GL-261
# T1 sequence (P48776 whole entry): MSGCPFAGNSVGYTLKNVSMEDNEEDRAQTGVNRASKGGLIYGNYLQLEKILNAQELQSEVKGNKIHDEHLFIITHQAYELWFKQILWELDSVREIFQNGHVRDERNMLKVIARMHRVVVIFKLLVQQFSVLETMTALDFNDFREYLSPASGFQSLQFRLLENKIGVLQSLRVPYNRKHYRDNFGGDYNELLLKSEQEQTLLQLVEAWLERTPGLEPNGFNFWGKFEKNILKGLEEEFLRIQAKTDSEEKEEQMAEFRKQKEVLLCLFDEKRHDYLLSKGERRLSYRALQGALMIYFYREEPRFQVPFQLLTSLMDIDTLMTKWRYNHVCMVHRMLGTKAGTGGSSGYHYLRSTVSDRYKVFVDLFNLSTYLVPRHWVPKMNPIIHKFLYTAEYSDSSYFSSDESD
# [3] = tested on: rotenone‐induced mouse model of PD; assay: Rotarod test in rotenone model; format: in vivo, male C57BL/6NCrl mice
# Description: To investigate the effects of TDO inhibition, both compounds were orally administered once daily from day 7 after induction of the PD model (Fig. 5A). […] In this test, the time spent on an accelerating wheel was used to analyze motor function.
# Food and water was provided ad libitum.
# Motor function was assessed in the rotarod test by placing mice on an accelerating rod with speeds starting at 2 rpm and gradually increasing to 20 rpm. The latency to fall was recorded for a maximum of 300 s. Baseline motor function was tested seven days after surgery, and subsequently, motor function was tested every seven days until day 42.
# [4] = tested on: constitutively TDO‐expressing human glioblastoma A172 cell line; design: method as in PMID 31806638; conditions: cited from earlier work
# [5] = tested on: hTDO‐overexpressing HEK‐293 cells; design: method as in PMID 22308364; conditions: originally reported; cited from earlier work
# CYP1A2 = CYP1A2 (Homo sapiens, UniProt P05177); assay: CYP enzyme panel; format: biochemical
# CYP1A2, sequence (P05177 whole entry): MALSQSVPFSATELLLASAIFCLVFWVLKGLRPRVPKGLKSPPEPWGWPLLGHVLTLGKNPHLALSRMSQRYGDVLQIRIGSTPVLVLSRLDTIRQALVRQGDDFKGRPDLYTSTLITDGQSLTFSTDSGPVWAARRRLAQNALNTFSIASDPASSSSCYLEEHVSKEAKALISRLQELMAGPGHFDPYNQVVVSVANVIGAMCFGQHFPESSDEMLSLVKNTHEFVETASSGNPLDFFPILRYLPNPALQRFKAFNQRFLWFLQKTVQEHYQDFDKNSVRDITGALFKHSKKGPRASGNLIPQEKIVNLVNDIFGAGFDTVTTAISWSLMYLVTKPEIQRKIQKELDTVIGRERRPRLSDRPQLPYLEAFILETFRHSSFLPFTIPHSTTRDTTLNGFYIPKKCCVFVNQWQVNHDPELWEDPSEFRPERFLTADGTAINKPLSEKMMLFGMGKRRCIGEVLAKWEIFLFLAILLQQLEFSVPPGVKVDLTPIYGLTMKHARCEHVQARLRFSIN
# From the text: (§1) Since TDO contains a heme center, similar to cytochrome P450 (CYP) enzymes, we evaluated the selectivity of NTRC 3531‐0 on a panel of seven CYP enzymes, that is, CYP1A2, CYP2B6, CYP2C8, CYP2C9, CYP2C19, CYP2D6, and CYP3A4.
# CYP2B6 = CYP2B6 (Homo sapiens, UniProt P20813); assay: CYP enzyme panel; format: biochemical
# CYP2B6, sequence (P20813 whole entry): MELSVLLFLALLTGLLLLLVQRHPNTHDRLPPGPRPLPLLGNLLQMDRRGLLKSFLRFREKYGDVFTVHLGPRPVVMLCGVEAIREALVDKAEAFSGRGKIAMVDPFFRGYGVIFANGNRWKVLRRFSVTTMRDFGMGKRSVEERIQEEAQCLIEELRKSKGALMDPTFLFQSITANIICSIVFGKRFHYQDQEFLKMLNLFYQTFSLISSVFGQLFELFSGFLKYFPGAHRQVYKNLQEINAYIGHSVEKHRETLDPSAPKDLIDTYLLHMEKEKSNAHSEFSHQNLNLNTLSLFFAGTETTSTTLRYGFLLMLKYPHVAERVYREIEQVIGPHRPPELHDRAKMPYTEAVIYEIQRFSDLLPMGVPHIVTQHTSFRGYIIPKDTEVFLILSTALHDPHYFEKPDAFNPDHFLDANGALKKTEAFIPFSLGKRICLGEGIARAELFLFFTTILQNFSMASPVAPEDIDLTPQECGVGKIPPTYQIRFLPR
# From the text: as §1
# CYP2C19 = CYP2C19 (Homo sapiens, UniProt P33261); assay: CYP enzyme panel; format: biochemical
# CYP2C19, sequence (P33261 whole entry): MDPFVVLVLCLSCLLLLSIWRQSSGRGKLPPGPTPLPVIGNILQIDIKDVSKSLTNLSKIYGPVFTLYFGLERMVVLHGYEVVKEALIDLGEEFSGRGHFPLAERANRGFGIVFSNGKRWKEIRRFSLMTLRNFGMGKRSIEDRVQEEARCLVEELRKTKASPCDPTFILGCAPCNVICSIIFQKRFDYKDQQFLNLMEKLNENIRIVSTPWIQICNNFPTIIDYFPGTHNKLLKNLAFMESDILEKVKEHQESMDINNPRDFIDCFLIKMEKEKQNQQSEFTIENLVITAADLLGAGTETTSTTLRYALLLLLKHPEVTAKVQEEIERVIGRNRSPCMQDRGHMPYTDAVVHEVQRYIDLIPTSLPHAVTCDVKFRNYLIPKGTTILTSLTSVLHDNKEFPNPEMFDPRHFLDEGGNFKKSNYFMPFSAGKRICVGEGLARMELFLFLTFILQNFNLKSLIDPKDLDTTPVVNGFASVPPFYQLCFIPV
# From the text: as §1
# CYP2C8 = CYP2C8 (Homo sapiens, UniProt P10632); assay: CYP enzyme panel; format: biochemical
# CYP2C8, sequence (P10632 whole entry): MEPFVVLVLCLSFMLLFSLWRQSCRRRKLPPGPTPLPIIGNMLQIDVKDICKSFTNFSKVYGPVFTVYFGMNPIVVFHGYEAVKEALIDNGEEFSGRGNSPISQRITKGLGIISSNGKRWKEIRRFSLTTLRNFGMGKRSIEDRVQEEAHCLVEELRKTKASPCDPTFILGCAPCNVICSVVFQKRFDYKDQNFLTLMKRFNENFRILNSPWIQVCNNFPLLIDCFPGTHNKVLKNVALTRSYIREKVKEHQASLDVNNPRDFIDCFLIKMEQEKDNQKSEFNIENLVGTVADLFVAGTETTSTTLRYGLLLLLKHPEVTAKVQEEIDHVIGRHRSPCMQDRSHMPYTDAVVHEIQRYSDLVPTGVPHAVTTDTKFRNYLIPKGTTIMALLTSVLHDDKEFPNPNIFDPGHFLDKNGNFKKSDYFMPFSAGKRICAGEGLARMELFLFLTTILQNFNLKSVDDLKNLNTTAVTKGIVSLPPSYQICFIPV
# From the text: as §1
# CYP2C9 = CYP2C9 (Homo sapiens, UniProt P11712); assay: CYP enzyme panel; format: biochemical
# CYP2C9, sequence (P11712 whole entry): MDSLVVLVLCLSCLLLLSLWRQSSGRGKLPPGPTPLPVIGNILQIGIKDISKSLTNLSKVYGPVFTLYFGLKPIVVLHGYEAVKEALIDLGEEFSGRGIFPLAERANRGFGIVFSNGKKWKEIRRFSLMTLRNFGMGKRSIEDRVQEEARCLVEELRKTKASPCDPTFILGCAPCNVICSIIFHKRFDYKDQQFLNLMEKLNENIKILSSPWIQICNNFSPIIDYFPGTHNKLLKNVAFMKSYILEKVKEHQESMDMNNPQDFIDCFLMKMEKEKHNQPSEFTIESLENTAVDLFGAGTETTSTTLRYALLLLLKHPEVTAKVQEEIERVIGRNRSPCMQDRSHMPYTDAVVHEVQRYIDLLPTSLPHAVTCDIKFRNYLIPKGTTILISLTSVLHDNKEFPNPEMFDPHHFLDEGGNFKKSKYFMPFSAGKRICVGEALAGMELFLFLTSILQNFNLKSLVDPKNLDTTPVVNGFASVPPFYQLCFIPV
# From the text: as §1
# CYP2D6 = CYP2D6 (Homo sapiens, UniProt P10635); assay: CYP enzyme panel; format: biochemical
# CYP2D6, sequence (P10635 whole entry): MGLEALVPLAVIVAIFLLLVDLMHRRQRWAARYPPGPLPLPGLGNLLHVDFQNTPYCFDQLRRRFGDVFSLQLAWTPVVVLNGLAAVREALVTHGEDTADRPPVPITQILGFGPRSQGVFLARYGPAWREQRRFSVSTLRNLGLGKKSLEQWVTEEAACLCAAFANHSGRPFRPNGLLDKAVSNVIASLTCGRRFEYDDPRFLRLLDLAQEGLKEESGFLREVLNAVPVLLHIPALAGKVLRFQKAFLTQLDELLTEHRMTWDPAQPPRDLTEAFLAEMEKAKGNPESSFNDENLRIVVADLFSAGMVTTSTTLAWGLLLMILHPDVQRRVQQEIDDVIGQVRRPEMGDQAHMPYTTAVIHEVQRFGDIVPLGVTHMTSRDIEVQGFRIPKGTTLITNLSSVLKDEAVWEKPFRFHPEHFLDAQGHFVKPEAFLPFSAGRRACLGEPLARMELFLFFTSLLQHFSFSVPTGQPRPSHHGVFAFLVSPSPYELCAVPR
# From the text: as §1
# CYP3A4 = CYP3A4 (Homo sapiens, UniProt P08684); assay: CYP enzyme panel; format: biochemical
# CYP3A4, sequence (P08684 whole entry): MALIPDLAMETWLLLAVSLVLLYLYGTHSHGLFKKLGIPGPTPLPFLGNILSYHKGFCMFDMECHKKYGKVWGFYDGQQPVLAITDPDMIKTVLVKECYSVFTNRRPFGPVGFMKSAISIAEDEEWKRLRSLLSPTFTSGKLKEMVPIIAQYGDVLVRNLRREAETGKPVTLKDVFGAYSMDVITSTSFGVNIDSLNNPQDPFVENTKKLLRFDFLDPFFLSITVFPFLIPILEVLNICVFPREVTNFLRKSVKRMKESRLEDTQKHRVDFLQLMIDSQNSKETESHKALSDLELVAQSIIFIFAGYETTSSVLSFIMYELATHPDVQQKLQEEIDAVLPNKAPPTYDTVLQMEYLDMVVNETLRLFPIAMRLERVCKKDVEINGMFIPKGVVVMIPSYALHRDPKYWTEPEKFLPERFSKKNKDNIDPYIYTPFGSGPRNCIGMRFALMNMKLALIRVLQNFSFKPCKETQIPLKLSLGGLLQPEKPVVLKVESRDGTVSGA
# From the text: as §1
# [6] = target: T2, recombinant human TDO (hTDO) (Homo sapiens, UniProt P48775)
# T2 sequence (P48775 whole entry): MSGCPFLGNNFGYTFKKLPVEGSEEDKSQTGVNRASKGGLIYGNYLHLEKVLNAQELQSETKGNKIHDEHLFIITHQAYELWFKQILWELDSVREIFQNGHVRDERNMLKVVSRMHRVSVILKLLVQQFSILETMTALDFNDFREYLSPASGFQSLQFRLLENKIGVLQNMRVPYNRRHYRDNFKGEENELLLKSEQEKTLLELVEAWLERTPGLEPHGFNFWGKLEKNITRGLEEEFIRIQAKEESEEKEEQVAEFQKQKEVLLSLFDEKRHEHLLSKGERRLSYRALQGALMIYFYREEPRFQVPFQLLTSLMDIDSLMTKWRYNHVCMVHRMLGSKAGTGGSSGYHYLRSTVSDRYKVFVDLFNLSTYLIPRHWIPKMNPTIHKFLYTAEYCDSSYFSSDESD
# [7] = target: T2, recombinant human TDO (hTDO); assay: biochemical
# hTDO2‐overexpressing HEK‐293 cells (HEK‐hTDO), sequence (P48775 whole entry): as above
# human IDO1‐overexpressing HEK‐293 cells (HEK‐hIDO1), sequence (P14902 whole entry): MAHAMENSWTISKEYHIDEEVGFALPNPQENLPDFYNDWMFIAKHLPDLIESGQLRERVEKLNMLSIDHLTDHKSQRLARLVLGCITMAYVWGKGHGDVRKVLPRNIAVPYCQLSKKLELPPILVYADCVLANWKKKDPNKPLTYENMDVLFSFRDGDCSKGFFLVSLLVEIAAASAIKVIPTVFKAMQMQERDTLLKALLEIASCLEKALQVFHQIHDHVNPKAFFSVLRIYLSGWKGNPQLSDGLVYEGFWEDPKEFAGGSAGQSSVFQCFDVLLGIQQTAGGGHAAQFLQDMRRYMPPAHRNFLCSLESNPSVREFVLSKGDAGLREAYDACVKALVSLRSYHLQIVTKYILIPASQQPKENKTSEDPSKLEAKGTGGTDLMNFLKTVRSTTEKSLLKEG
structure (smiles),measurement,setting,value
"Fc1ccc2c(/C=C/c3nnn[nH]3)c[nH]c2c1 [LM10, reference compound]",inhibition at 0.6 µM,"[1]; HEK293, read-out: inhibition HEK‐hTDO",33%
same,inhibition at 0.6 µM,"[2]; HEK293, read-out: inhibition HEK‐hIDO1",< 20%
same,inhibition at 0.6 µM,GL‐261‐mTDO; read-out: inhibition GL‐261‐mTDO,42%
same,motor function (rotarod) of rotenone‐treated mice,"[3]; highest dose p.o. once daily: 50 mg·kg^−1, P < 0.05",significantly improved motor function
same,IC50,[4],24 µM
same,potency in hTDO‐overexpressing HEK‐293 cells,[5],high‐nanomolar potent inhibitor
C[C@@H](CO)NC(=O)c1ccc(-c2c[nH]c3cc(F)ccc23)cc1 [NTRC 3531‐0],IC50,[1],0.816 µM
same,"selectivity for hTDO over hIDO1, HEK‐293 cell‐based assays",[1],at least 25 times
same,IC90,[1]; HEK293,2.5 µM
same,IC50,"[2]; cell-based assay, read-out: Potency (IC50) HEK‐hIDO1 (converted)",20.7 µM
same,IC50,GL‐261‐mTDO,0.214 µM
same,IC50,CYP1A2,> 31.6 µM
same,IC50,CYP2B6,> 31.6 µM
same,IC50,CYP2C19,> 31.6 µM
same,IC50,CYP2C8,16.3 µM
same,IC50,CYP2C9,> 31.6 µM
same,IC50,CYP2D6,> 31.6 µM
same,IC50,CYP3A4,> 31.6 µM
same,motor function (rotarod) of rotenone‐treated mice,"[3]; two highest doses p.o. once daily: 50 mg·kg^−1, P < 0.01 at day 35, 100 mg·kg^−1, P < 0.01",significantly improved motor function
same,"selectivity for hTDO over hIDO1, biochemical assays",[6],more than 60 times
same,IC50,[7],0.49 µM
